From US20170022260A9 (Sanofi, priority 2013, published 2017)
≈ marks a conversion by molar mass, not a printed value.

Tests used:
physchem = format: physicochemical
Procedure: Prior to the testing of solubility and stability of a peptide batch, its content was determined Therefore, two parameters were investigated, its purity (HPLC-UV) and the amount of salt load of the batch (ion chromatography).
. Therefore, solutions from solid samples were prepared in different buffer systems with a concentration of 1.0 mg/mL compound based on the previously determined content. HPLC-UV was performed after 2 h of gentle agitation from the supernatant, which was obtained by 20 min of centrifugation at 4000 rpm.
This analysis also served as starting point (t0) for the stability testing.
As HPLC/UPLC method, method D or E has been used.

[1] = system: Female diabetic dbdb-mice; assay: Glucose lowering in female diabetic dbdb-mice; format: in vivo; details: 100 μg/kg s.c.
Procedure: Female diabetic dbdb-mice (BKS.Cg-+Leprdb/+Leprdb/OlaHsd) 10 weeks of age at study start were used. Mice were habituated to feeding and housing conditions for at least 2 weeks. 7 days prior to study start, HbA1c were determined to allocate mice to groups, aiming to spread low, medium and high HbA1c-values and in consequence the group-means (n=8), as equally as possible. On the day of study, food was removed, directly before sampling for baseline glucose assessment (t=0 min) Immediately afterwards, compounds or vehicle (phosphor buffered saline, PBS) were administered subcutaneously, 100 μg/kg, 10 ml/kg. Afterwards, blood samples were drawn by tail tip incision at 15, 30, 60, 90, 120, 150, 180, 240, 360, 480 min and 24 h. Food was re-offered after the 480 min-sampling.
Data were analysed by 2-W-ANOVA on repeated measurements, followed by Dunnett's test as post-hoc assessment, level of significance p<0.05.

Compound	solubility at 2 h (physchem; pH 4.5, solubility pH 4.5)	solubility at 2 h (physchem; pH 7.4, solubility pH 7.4)	reduction of glucose compared to vehicle control, statistical significance ([1]; female db/db-mice, p<0.05, 2-way-ANOVA, Dunnett's post-hoc test)	maximal effect, glucose reduction ([1]; non-fasted female db/db-mice, change from baseline (baseline on average 28 mmol/l))
CC[C@H](C)[C@H](NC(=O)[C@H](CC(C)C)NC(=O)[C@H](Cc1c[nH]c2ccccc12)NC(=O)[C@H](CCC(=O)O)NC(=O)[C@@H](NC(=O)[C@H](Cc1ccccc1)NC(=O)[C@H](CCC(=O)O)NC(=O)[C@H](CCCCN)NC(=O)[C@H](C)NC(=O)[C@H](CCCNC(=N)N)NC(=O)[C@H](CCC(N)=O)NC(=O)[C@H](CCC(=O)O)NC(=O)[C@H](CC(=O)O)NC(=O)[C@H](CC(C)C)NC(=O)[C@H](CCC(N)=O)NC(=O)[C@H](CCCCN)NC(=O)[C@H](CO)NC(=O)[C@H](CC(C)C)NC(=O)[C@H](CC(=O)O)NC(=O)[C@H](CO)NC(=O)[C@@H](NC(=O)[C@H](Cc1ccccc1)NC(=O)[C@@H](NC(=O)CNC(=O)[C@H](CCC(N)=O)NC(=O)[C@H](CO)NC(=O)[C@@H](N)Cc1c[nH]cn1)[C@@H](C)O)[C@@H](C)O)[C@@H](C)CC)C(=O)N[C@@H](C)C(=O)NCC(=O)NCC(=O)N1CCC[C@H]1C(=O)N[C@H](C(=O)N[C@@H](CO)C(=O)NCC(=O)N[C@@H](C)C(=O)N1CCC[C@H]1C(=O)N1CCC[C@H]1C(=O)N1CCC[C@H]1C(=O)N[C@@H](CO)C(N)=O)C(C)C [SEQ ID NO: 6, HSQGTFTSDLSKQLDEQRAKEFIEWLIAGGPVSGAPPPS-NH2]	934 µg/mL (≈ 223 µM)	> 1000 µg/mL	–	–
H-Aib-HGTFTSDLSKQLDEQRAKDFIEWLIAGGPSSGAPPPS-NH2 [SEQ ID NO: 10]	–	–	statistical significant reduction of glucose compared to vehicle control from t=60 min until 240 min	~12 mmol/1
